Results: PubChem BioAssay (NCI)
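Test compounds were applied to cells in 96-well plates for 48 hours at 5 doses. Here, GI50 denotes the concentration required for 50% inhibition of growth. TGI marks complete inhibition of growth.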

Key:
Test in all cases: growth of human tumour cells (NCI), 48 h
[1] = tested on: DU-145 prostate
[2] = tested on: HOP-62 NSCLC
[3] = tested on: HS 578T breast
[4] = tested on: KM12 colon
[5] = tested on: MALME-3M melanoma
[6] = tested on: MOLT-4 leukemia
[7] = tested on: NCI-H23 lung
[8] = tested on: OVCAR-8 ovarian
[9] = tested on: RPMI-8226 leukemia
[10] = tested on: SK-MEL-5 melanoma

Structure (SMILES)	GI50 [1] [µM]	TGI [1] [µM]	GI50 [2] [µM]	TGI [2] [µM]	GI50 [3] [µM]	TGI [3] [µM]	GI50 [4] [µM]	TGI [4] [µM]	GI50 [5] [µM]	TGI [5] [µM]	GI50 [6] [µM]	TGI [6] [µM]	GI50 [7] [µM]	TGI [7] [µM]	GI50 [8] [µM]	TGI [8] [µM]	GI50 [9] [µM]	TGI [9] [µM]	GI50 [10] [µM]	TGI [10] [µM]
COc1cccc(-c2nn(-c3ccccc3)cc2-c2ccnc(NCCNS(=O)(=O)c3ccc(C(F)(F)F)cc3)c2)c1	5.09	> 100	4.16	43.6	4.07	> 100	3.02	16.7	2.33	6.81	1.93	5.48	3.23	> 100	4.07	46.2	2.42	7.86	1.72	3.11
O=C1C(=O)c2cc([N+](=O)[O-])ccc2-c2ccccc21	1.74	3.16	–	–	1.68	4.49	1.79	3.23	1.77	3.4	–	–	1.65	3.29	1.71	3.6	2.21	4.7	1.8	3.2
CCCCCCCCCCCCCOC(=O)c1c(C)[nH]c(/C=C2\N=C(c3ccc[nH]3)C=C2OC)c1C	0.0427	> 78.9	0.801	14.2	0.0853	5.47	< 0.0167	> 100	2.6	> 100	0.0807	> 100	0.244	31.4	0.0454	–	0.0498	> 100	0.0194	0.0911
Nc1nc(N)c2nc(CNc3ccc(C(=O)CC(CCC(=O)O)C(=O)O)cc3)cnc2n1 (stereo not drawn)	2.24	> 100	0.127	> 100	> 100	> 100	0.232	> 100	1.43	> 100	0.125	> 100	0.441	> 100	0.166	> 100	–	> 100	0.45	> 100
O=C(O)C1C2C=CC(O2)C1C(=O)Nc1ccccc1 (stereo not drawn)	–	> 100	–	> 100	–	> 100	–	> 100	–	> 100	–	> 100	–	> 100	–	> 100	–	> 100	–	> 100
CC1=CC2=C(OCO1)C(=O)c1ccccc1C2=O	–	3.67	–	15.1	–	4.25	–	21.9	–	6.48	–	25.3	–	8.06	–	32.3	–	> 100	–	5.27
C=C1C(=O)O[C@@H]2[C@H]1CC[C@H](C)[C@]1(O)CCC(=O)[C@@]21C	–	–	–	> 10	–	> 10	–	> 10	–	> 10	–	> 10	–	> 10	–	> 10	–	> 10	–	> 10
